Laboratory results taken from EP1424337A1, “4-hydroxy derivatives of 5,6,9,10-tetrahydro-10-((2-methyl-1h-imidazol-1-yl)methyl)-4h-pyrido-(3,2,1-jk)-carbazol-11(8h)-one” (Solvay Pharmaceuticals GmbH, priority 2002, dated 2004).

Assays:
5-HT3 receptor = target: T1, 5-HT3 receptor (Cavia porcellus, UniProt O70212); assay: 2-methyl-5-HT induced contractions in isolated guinea-pig ileal preparations (5-HT3 receptor antagonism, Schild plot); design: species or system guinea pigs; conditions: for effect on concentration response curve for 2-methyl-5-HT: bath application; for effect on concentration response curve for 2-methyl-5-HT / Kb: guinea-pig ileum; for Kb: agonist 2-methyl-5-HT 0.32 - 100 µM, bath concentrations 0.1 and 1 µM (Ib), 1 and 3 µM (Ic), 5-6 preparations, read-out: pA2 (converted)
T1 construct: lleal segments were isolated and mounted in an organ bath; from tissue; host or cells: isolated guinea-pig ileal segments (female, Pirbright White)
T1 sequence (O70212 20-490): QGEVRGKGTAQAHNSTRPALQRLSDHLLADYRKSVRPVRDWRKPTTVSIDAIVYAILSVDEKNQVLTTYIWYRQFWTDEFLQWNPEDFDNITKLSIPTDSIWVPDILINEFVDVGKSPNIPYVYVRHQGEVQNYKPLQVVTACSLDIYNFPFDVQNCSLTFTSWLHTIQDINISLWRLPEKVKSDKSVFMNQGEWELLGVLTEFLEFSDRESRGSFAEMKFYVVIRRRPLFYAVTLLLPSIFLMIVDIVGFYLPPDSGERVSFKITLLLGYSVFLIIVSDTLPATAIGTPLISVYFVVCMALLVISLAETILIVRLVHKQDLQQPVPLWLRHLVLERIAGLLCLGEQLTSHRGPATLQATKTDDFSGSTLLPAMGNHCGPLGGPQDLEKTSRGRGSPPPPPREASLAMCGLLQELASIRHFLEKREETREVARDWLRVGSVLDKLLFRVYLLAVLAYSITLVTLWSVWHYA
Source text: 2. Effect of mammalian cilansetron 4-hydroxymetabolites from dog's urine of formulas Ib and Ic on 2-methyl-5-HT induced contractions in ileal preparations isolated from guinea pigs (5-HT3 receptor antagonism)
In this test method, the antagonistic potency of the mammalian cilansetron 4-hydroxymetabolites from dog's urine of formulas Ib and Ic was investigated by determining the shift of the concentration-response curve for the specific 5-HT3 receptor agonist 2-methyl-5-HT in preparations from the guinea-pig ileum.
Guinea-pigs (female, Pirbright White, about 300 g) were killed by a blow on the head and bled from the carotid arteries. lleal segments were isolated and mounted in an organ bath containing a salt solution continuously gassed with carbogen and kept at 37 °C. The composition of the solution in mM was 136.9 NaCl, 2.7 KCI, 1.77 CaCl2, 0.8 MgCl2, 0.6 NaH2PO4, 11.9 NaHCO3, and 5 glucose. The preparations were preloaded with 10 mN and allowed to equilibrate for 90 - 120 minutes (= min.). The concentration response curves for 2-methyl-5-HT (0.32 - 100 µM, by company Sigma) were constructed non-cumulatively to avoid desensitization. The measurement was made at the point of maximal contraction and the agonist was washed out as soon as peak response was reached. A first 2-methyl-5-HT curve was followed by another concentration response curve in the presence of one concentration of the antagonist. The response to the highest concentration of 2-methyl-5-HT obtained in the first concentration response curve was set to 100 %. For each compound at least two concentrations of the antagonist were tested in different sets. Data from 5-6 preparations were used for each concentration response curve. Schild plots were calculated and the pA2 value was determined. The pA2-value is the negative logarithm of the molar concentration of the antagonist which causes a rightward shift of the concentration response curve for the agonist by a factor of 2. The higher the pA2-value is, the higher is the potency of a compound.
All test compounds were initially dissolved in dimethylsulfoxide (= DMSO) at concentrations of 10^-2 mol/I and were further diluted with water. The final bath concentrations for the different compounds used were 0.1 and 1 µM for compound of formula Ib and 1 and 3 µM for compound of formula Ic. […]
In this test method, the 5-HT3 agonist 2-methyl-5-HT evoked dose-dependent contractions of the guinea-pig ileum with a pD2-value of 5.2. The pD2-value is the negative logarithm of the molar […].

serotonin 5-HT3 receptor = target: T2, serotonin 5-HT3 receptor (Mus musculus, UniProt P23979); assay: Radioligand binding assay with [3H]-GR-65630 on membranes of cell line N1E-115; design: species or system human; conditions: for Ki: competition with [^3H]-GR-65630 (0.35 nM), N1E-115 membranes, 20 mM HEPES pH 7.4, 150 mM NaCl, 25°C, 60 min, Cheng and Prusoff, read-out: Kl
T2 construct: the 5-HT3 receptor which was endogenously expressed in the human cell line N1E-115; endogenous in cells; host or cells: N1E-115 neuroblastoma cells (membrane suspensions)
T2 sequence (P23979 24-483 isoform P23979-2 limits assumed): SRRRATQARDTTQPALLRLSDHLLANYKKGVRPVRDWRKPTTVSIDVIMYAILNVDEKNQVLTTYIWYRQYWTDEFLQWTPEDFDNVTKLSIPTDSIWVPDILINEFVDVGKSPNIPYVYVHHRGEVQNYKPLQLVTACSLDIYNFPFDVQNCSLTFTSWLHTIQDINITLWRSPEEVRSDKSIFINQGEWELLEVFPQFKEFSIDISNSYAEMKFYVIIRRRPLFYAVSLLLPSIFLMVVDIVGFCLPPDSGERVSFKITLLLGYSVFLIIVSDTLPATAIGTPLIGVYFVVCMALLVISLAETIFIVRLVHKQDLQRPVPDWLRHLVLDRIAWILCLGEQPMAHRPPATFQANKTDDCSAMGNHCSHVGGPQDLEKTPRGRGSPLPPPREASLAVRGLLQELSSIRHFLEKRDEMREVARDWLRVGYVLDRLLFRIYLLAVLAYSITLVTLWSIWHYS
Experimental: 1. Affinity of 4-hydroxy derivatives of 5,6,9,10-tetrahydro-10-[(2-methyl-1H-imidazol-1-yl)methyl]-4H pyrido-[3,2,1-jk]-carbazol-11(8H)-one of formulas Ib - le for the human serotonin 5-HT3 receptor
In this test method, the ability of the 4-hydroxy derivatives of 5,6,9,10-tetrahydro-10-[(2-methyl-1H-imidazol-1-yl)methyl]-4H-pyrido-[3,2,1-jk]-carbazol-11(8H)-one of formulas Ib - le was assessed, for binding to the 5-HT3 receptor which was endogenously expressed in the human cell line N1E-115 and using tritiated GR-65630 as a radioligand.
The binding assays were carried out using the method of Hoyer and Neijt (see Hoyer, D., Neijt H.C., Mol. Pharmacol. 33, (1988) 303-309). Tritiated GR-65630 was used as radioligand and membrane suspensions, prepared in a known manner from the human neuroblastoma cell line N1E-115. Compounds have been tested for binding in various concentrations to compete with [^3H]-GR-65630 (0.35 nM final concentration) in 20 mM HEPES pH 7.4, containing 150 mM NaCl at 25°C for 60 min. Thereafter, the membranes were filtrated over glass fiber filters and bound radioactivity was counted by liquid scintillation counting. Each concentration was tested in triplicate, nonspecific binding was assessed by incubation with the reference compound MDL-72222 (1 µM).
Plotting the amount of bound radioactivity against the concentration of the competing compound allowed estimation of an IC50 value, i.e. that concentration at which 50% of the control radioligand binding remains. […]

For Cc1[nH]c2ccc(O)cc2c1CCN [2-methyl-5-HT, reference compound], the EC50 (5-HT3 receptor; agonist-evoked dose-dependent contractions of the guinea-pig ileum, read-out: pD2-value (converted)) was 6310 nM.

In the case of Cc1nccn1C[C@H]1CCc2c(c3cccc4c3n2CC[C@@H]4O)C1=O [Ib], the Ki (serotonin 5-HT3 receptor) is reported as 3 nM, the “effect on concentration response curve for 2-methyl-5-HT” value (5-HT3 receptor) is reported as “dose-dependent shift of the concentration response curve to the right” and the Kb (5-HT3 receptor) is reported as 186 nM.

In the case of Cc1nccn1C[C@H]1CCc2c(c3cccc4c3n2CC[C@H]4O)C1=O [Ic], the Ki (serotonin 5-HT3 receptor) is reported as 10 nM, the “effect on concentration response curve for 2-methyl-5-HT” value (5-HT3 receptor) is reported as “dose-dependent shift of the concentration response curve to the right” and the Kb (5-HT3 receptor) is reported as 355 nM.

In the case of Cc1nccn1C[C@@H]1CCc2c(c3cccc4c3n2CC[C@@H]4O)C1=O [Id], the Ki (serotonin 5-HT3 receptor) is reported as 8.8 nM.

Cc1[nH]cnc1CCC(=O)c1cn(C)c2ccccc12 [[^3H]-GR-65630, reference compound] showed a Kd (serotonin 5-HT3 receptor; radioligand, established separately, read-out: Kd, the affinity constant for [^3H]-GR-65630) of 0.33 nM.

Cc1nccn1C[C@@H]1CCc2c(c3cccc4c3n2CC[C@H]4O)C1=O [le] showed a Ki (serotonin 5-HT3 receptor) of 38 nM.
